# Measurements as given in US7960438B2, “Use of agomelatine in obtaining medicaments intended for the treatment of generalized anxiety disorder” (Les Laboratoires Servier, priority 2006, dated 2011).
# System: patients suffering from Generalized Anxiety Disorder
# Test: Clinical study versus placebo in Generalized Anxiety Disorder
# Type: in vivo
# Method: A clinical study versus placebo has been carried out in 121 patients. Those 121 patients have been randomised in two parallel groups and received either agomelatine at 25 mg per day or placebo.
# After treatment for two weeks, and in case of low response, doses have been increased to 50 mg per day in double blind study for patients receiving agomelatine with a IVRS system (Interactive Voice Response System). Treatment for 12 weeks was carried out.
# The efficacy has been appreciated with evaluation tools recommended by the health authorities, such as the Hamilton Anxiety Scale (Hamilton M., J. Neurol. Neurosurg. Psychiat., 1959, 23, 56-62), or the Sheehan Disability Scale (International Clinical Psychopharmacology, 1996, 11, 89-95). The acceptability profile has also been evaluated.
smiles,measurement,setting,value
"COc1ccc2cccc(CCNC(C)=O)c2c1 [agomelatine, N-[2-(7-methoxy-1-naphthyl)ethyl]acetamide]",acceptability profile for the patients,"25 mg per day (up to 50 mg per day), 12 weeks",good acceptability profile
same,difference between agomelatine group and placebo group on the total score of the Hamilton Anxiety Scale,"121 patients, 25 mg per day (increased to 50 mg per day in case of low response after two weeks), 12 weeks, p=0.040",−3.28
same,discontinuation syndrome when the treatment was stopped,after stopping 12 weeks treatment,absence of the discontinuation syndrome
